Laboratory results published in patent US9233978B2, “6-fused heteroaryldihydropyrimidines for the treatment and prophylaxis of hepatitis B virus infection” (Hoffmann-La Roche Inc., priority 2014, dated 2016).
≈ marks a conversion by molar mass, not a printed value.

Key:
HBV [1] = settings: HBV infected transgenic mouse or humanized mouse models; cited from earlier work
CYP3A4 = test: Cytochrome P450 induction screening assay, mRNA induction in human cryopreserved hepatocytes; assay type: in vitro ADME; settings: CYP3A4 mRNA relative induction, 24 hours, test compound up to 10 μM
Protocol: Human cryopreserved hepatocytes (Life Technologies, Carlsbad, USA) were thawed and cultured in collagen I coated 96-well plates with a density of 52,000 cells/well. After attachment, medium was changed and cells were pre-cultured overnight in hepatocyte maintenance medium (HMM; Lonza, Switzerland).
Test compounds were dosed to the cells next morning at an indicated concentration (up to 10 μM) in HMM culture media containing gentamycin and a constant 0.1% DMSO. Similarly, dilutions of the positive inducer compounds omeprazole (prototypical inducer of human CYP1A2; final concentrations: 1 and 10 μM), phenobarbital (prototypical inducer of human CYP2B6; final concentrations: 100 and 1000 μM) and rifampicin (prototypical inducer of human CYP3A4; final concentrations: 1 and 10 μM) were prepared from 1000 fold DMSO stock solutions in HMM containing gentamycin. Medium change was then performed and cells were exposed for 24 hours to test compounds, positive inducer compounds, or vehicle (0.1% DMSO), respectively.
At the end of the compound exposure period, medium was removed and cells lysed using 100 μL/well MagNA Pure LC RNA isolation tissue lysis buffer (Roche Diagnostics AG, Rotkreuz, Switzerland). Plates were then sealed and frozen at −80° C. until further workup.
mRNA isolation was performed using the MagNA Pure 96 system (Roche Diagnostics AG, Rotkreuz, Switzerland) and the respective cellular RNA large volume kit (Roche Diagnostics AG, Rotkreuz, Switzerland) from thawed samples diluted 1:1 with PBS. The volume of the cell lysis and an elution volume of 100 μL were used. 20 μl of the resulting mRNA suspension was then used for reverse transcription using 20 μl of the transcript or first stand cDNA synthesis kit (Roche prime Supply, Mannheim, Germany). The resulting cDNA was diluted with 40 μl of H2O before using for qRT-PCR. qRT-PCR was performed by using the forward and the reverse primer, the corresponding UPL (all from Microsynth, Balgach, Switzerland) and the Taqman Fast advanced master mix (Applied Biosystems), on an ABI 7900 machine (Applied Biosystems).
qRT-PCR Ct-values for the respective P450s were put into relation to the Ct-value of RN18S1 (microsynth, Balgach, Switzerland) of the same sample. Doing so, a respective Δct-value was calculated. Using the average of all Δct-values for the vehicle control samples, a ΔΔct-value was calculated for each sample (ΔΔct-value(sample)=Δct-value(sample)−average of Δct-value of all vehicle controls). The fold induction of the respective sample was calculated as 2^(−ΔΔct). The individual fold induction values were then averaged per treatment condition (usually n=3 biological replicates).
Relative induction values to the respective positive inducer compound condition (10 μM omeprazole for CYP1A2; 1000 μM Phenobarbital for CYP2B6; 10 μM rifampicin for CYP3A4) were then calculated from the fold induction values as follows: Relative induction (%)=100×(T−V)/(P−V)

[2] = Human microsomal metabolic stability; assay type: in vitro ADME; settings: human microsomes 0.5 mg/mL, 1 μM test compound, NADPH, 37° C., pH 7.4, 0-30 minutes
Outline: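 1 μM compound with 0.5 mg/mL human liver microsomal protein in 100 mM phosphate pH 7.4 at 37° C, started with 1 mM NADPH or a NADPH-regenerating system. Sampled at 0–30 min, quenched in cold methanol with tolbutamide internal standard; remaining parent quantified by LC-MS/MS.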

HepDE19 cells = test: Cytotoxicity in HepDE19 cells (CCK-8) and selectivity index; assay type: cell-based; settings: CC50 (HepDE19) value / EC50 (HepG2.2.15) value
Outline: (§1)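 HepDE19 cells (DMEM-F12, 10% FBS) were treated with compound for five days, then given CCK-8 for 2 h at 37 °C and read at OD450 and OD630. CC50 is the concentration killing 50% of host cells. Selectivity index is CC50/EC50.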

[3] = as above; assay type: cell-based; settings: human, HepDE19 cells; CCK-8 cell viability; five days after treatment
Outline: as §1

HBV [4] = test: Anti-HBV activity in vitro, HepG2.2.15 cells, extracellular HBV DNA by qPCR; assay type: cell-based; settings: Hepatitis B virus, HepG2.2.15, 120 h, HepG2.2.15 cells; HBV replication inhibited by 50%, extracellular HBV DNA by qPCR; five days after compound treatment; read-out: EC50
Outline: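 Extracellular HBV DNA in culture supernatant was measured by qPCR after nucleic acid extraction. The supernatant came from constitutively replicating HepG2.2.15 cells exposed for five days to half-log-diluted compounds, with DMSO at 0.5% final. Cells had been plated overnight at 37 °C beforehand.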

Lysa solubility = assay type: physicochemical; settings: phosphate buffer, pH 6.5, aqueous buffer, thermodynamic from solid, 0.05 M phosphate buffer (pH 6.5)
Outline: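 Duplicate samples dried from 10 mM DMSO stocks, taken up in 0.05 M phosphate buffer pH 6.5, stirred 1 h, shaken 2 h and left overnight. Filtrate and 1/10 dilution quantified by direct UV or HPLC-UV, in μg/mL; above 80% of the calculated maximum, reported as greater than that value.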

Structure (SMILES) | in vivo efficacy (HBV DNA reduction) (HBV [1]) | % of Positive control (10 μM Rifampicin) (CYP3A4) [%] | Human Microsomal Clearance [2] [mL/min/kg] | Selectivity index (CC50/EC50) (HepDE19 cells) | CC50 at 5 days [3] [nM] | EC50 (HBV [4]) [nM] | solubility thermodynamic (Lysa solubility) [µg/mL]
COC(=O)C1=C(C)NC(c2ncc(F)cc2F)=N[C@H]1c1ccc(F)cc1Cl [Bay 41-4109] | demonstrated in vivo efficacy with HBV DNA reduction | – | – | – | – | – | –
CCOC(=O)C1=C(CN2CCN3C(=O)N(CC(C)(C)C(=O)O)C[C@@H]3C2)NC(c2nccs2)=N[C@H]1c1cccc(F)c1C [Example 76, 3-[(8aS)-7-[[(4S)-5-ethoxycarbonyl-4-(3-fluoro-2-methyl-phenyl)-2-thiazol-2-yl-1,4-dihydropyrimidin-6-yl]methyl]-3-oxo-5,6,8,8a-tetrahydro-1H-imidazo[1,5-a]pyrazin-2-yl]-2,2-dimethyl-propanoic acid] | – | 1.3 | 0.8 | >14286 | > 100000 | 7 | 565 (≈ 944 µM)
